Results: US20020160981A1, “Compositions containing an association of aspirin and an anti-Xz oligosaccharide and use of an anti-Xa oligosaccharide optionally in combination with aspirin” (Sanofi-Synthelabo, priority 1997, published 2002)

Assays:
prothrombin fragment 1+2 = prothrombin fragment 1+2 levels in PTCA patients; type: in vivo, human; conditions: 2 hours after PS injection; fell from 2.08±1.04 before
[1] = test system: patients undergoing a transluminal angioplasty of the coronaries; experiment: pilot clinical study in patients undergoing PTCA: thrombus formation at PTCA sites and TIMI flow in target vessel; type: in vivo, human; conditions: 71 patients
Description: A single dose of 12 mg of PS via the intravenous route and 500 mg of aspirin, via the intravenous route, was administered to the patients.
To assess the antithrombotic activity 71 patients with stable angina (26), recent unstable angina (11) or recent myocardial infarction (34) with type A or B coronary lesions underwent PTCA with a single 12 mg PS i.v. bolus injection and 500 mg i.v. aspirin. Angiography was repeated 24 h after PTCA. The endpoints were thrombus formation at PTCA sites and the thrombolysis in myocardial infarction (TIMI) flow in target vessel. Heparin was not allowed before, during and within 24 h after PTCA.

[2] = activated clotting time (ACT) in PTCA patients; type: in vivo, human; conditions: after 12 mg PS i.v. and 500 mg i.v. aspirin
[3] = test system: Thrombin-antithrombin complexes; experiment: thrombin-antithrombin complexes levels (TAT) in PTCA patients; type: in vivo, human; conditions: 2 hours after PS injection; fell from 21.9±18.7 before
[4] = single 12 mg PS i.v. bolus and 500 mg i.v. aspirin, no heparin

major bleeding ([1]; 12 mg PS i.v. and 500 mg i.v. aspirin): No major bleeding occurred
Compound: CO[C@H]1OC(COS(=O)(=O)O)[C@@H](O[C@@H]2OC(C(=O)O)[C@H](O[C@@H]3OC(COS(=O)(=O)O)[C@@H](O[C@@H]4OC(C(=O)O)[C@@H](O[C@H]5OC(COS(=O)(=O)O)[C@@H](O)C(O)C5NS(=O)(=O)O)C(O)C4O)C(OS(=O)(=O)O)C3NS(=O)(=O)O)C(O)C2OS(=O)(=O)O)C(O)C1NS(=O)(=O)O (stereo partly drawn) [PS, methyl O-(2-deoxy-2-sulphoamino-6-O-sulpho-α-D-gluco-pyranosyl)-(1→4)-O-(β-D-glucopyranosyluronic acid)-(1→4)-O-(2-deoxy-2-sulphoamino-3,6-di-O-sulpho-α-D-glucopyranosyl)-(1→4)-O-(2-O-sulpho-α-L-idopyranosyl-uronic acid)-(1→4)-2-deoxy-2-sulphoamino-6-O-sulpho-α-D-glucopyranoside]
prothrombin fragment 1+2 (prothrombin fragment 1+2): 1.54 ± 82 ng/mL
Acute thrombotic closure at dissected PTCA site [1, 4]: 1 patient
distal embolization of a thrombus containing plaque [1, 4]: 1 patient
TIMI 3 flow without thrombus at PTCA site ([1]; at 24 h after PTCA, 12 mg PS i.v. and 500 mg i.v. aspirin): 71 patients
activated clothing time ACT [2]: remained unchanged
Anti-Xa activity, peak (factor Xa; 10 min. after 12 mg PS i.v. bolus (with 500 mg i.v. aspirin)): 1.20±0.29 U anti-Xa/ml
Anti-Xa activity, maintained on average (factor Xa; 2 hours after PS administration, 12 mg i.v. (with 500 mg i.v. aspirin)): 0.87 ±0.14 U anti-Xa/ml
Thrombin-antithrombin complexes levels (TAT) [3]: 4.8 ± 3.8 µg/L
